# Measurements reported in patent US9345247B2, “Azaindole carboxylic acid amides and azaindole thiocarboxylic acid amides for use as insecticides and acaricides” (BAYER CROPSCIENCE AG, priority 2012, dated 2016).
# Like-named read-outs stand apart in the source and are kept apart here.
# How the values were obtained:
# [1] = system: caterpillars of the armyworm (Spodoptera frugiperda); experiment: Spodoptera frugiperda spray test (SPODFR); type: in vivo; conditions: for efficacy: 100 g/ha, spray, after 7 days
# Method: Spodoptera frugiperda—Spray Test (SPODFR)
# (§1) To produce a suitable active compound formulation, 1 part by weight of active compound is mixed with the stated amounts of solvent and emulsifier, and the concentrate is diluted with emulsifier-containing water to the desired concentration.
# Leaf discs of maize (Zea mays) are sprayed with an active compound formulation of the desired concentration and, after drying, populated with caterpillars of the armyworm (Spodoptera frugiperda).
# After 7 days, the efficacy in % is determined. 100% means that all the caterpillars have been killed; 0% means that no caterpillars have been killed.
# (§2) To produce a suitable preparation of active compound, 1 part by weight of active compound is mixed with the stated amounts of solvent and emulsifier, and the concentrate is diluted with emulsifier-containing water to the desired concentration.
# Leaf discs of maize (Zea mays) are sprayed with an active compound preparation of the desired concentration and, after drying, populated with caterpillars of the armyworm (Spodoptera frugiperda).
# After the stated period of time, the effect in % is determined. 100% means that all the caterpillars have been killed; 0% means that no caterpillars have been killed.
# [2] = log P by HPLC on reversed-phase column (C18), EEC directive 79/831 Annex V.A8; type: physicochemical; conditions: for chromatographic logP: reversed-phase HPLC column (C18)
# Method: a) The determination of the W by LC-MS in the acidic range is effected at pH 2.7, acetonitrile (contains 0.1% formic acid) and water as eluents; linear gradient from 10% acetonitrile to 95% acetonitrile, instrument: Agilent 1100 LC-System, Agilent MSD System, HTS PAL. The log P values reported in the tables and Preparation Examples above were determined in accordance with EEC directive 79/831 Annex V.A8 by HPLC (High Performance Liquid Chromatography) using a reversed-phase column (C18). Temperature 43° C. The calibration is effected with unbranched alkan-2-ones (having 3 to 16 carbon atoms), for which the log P values are known.
# [3] = system: adult Musca domestica; experiment: Musca domestica test (MUSCDO); type: in vivo; conditions: 100 ppm, after 2 days
# Method: (§3) Musca domestica Test (MUSCDO) [table] To produce a suitable active compound formulation, 10 mg of active compound are mixed with 0.5 ml of dimethyl sulfoxide, and the concentrate is diluted with water to the desired concentration. Vessels containing a sponge treated with the active compound formulation of the desired concentration are populated with adult Musca domestica. After 2 days, the kill in % is determined 100% means that all flies have been killed; 0% means that no flies have been killed.
# [4] = system: Boophilus microplus; experiment: Boophilus microplus test (BOOPMI injection); type: in vivo; conditions: 20 μg/animal, after 7 days
# Method: Boophilus microplus Test (BOOPMI Injection) [table] To produce a suitable active compound formulation, 10 mg of active compound are mixed with 0.5 ml of solvent and the concentrate is diluted with solvent to the desired concentration. The active compound solution is injected into the abdomen (Boophilus microplus), and the animals are transferred into dishes and stored in a climate-controlled room. After 7 days, the efficacy in % is determined. The activity is assessed by laying of fertile eggs. 100% means that none of the ticks has laid any fertile eggs.
# [5] = system: greenhouse red spider mite (Tetranychus urticae); experiment: Tetranychus urticae spray test, OP-resistant (TETRUR); type: in vivo; conditions: for efficacy: 100 g/ha, spray, after 6 days
# Method: as §1
# Discs of bean leaves (Phaseolus vulgaris) infested by all stages of the greenhouse red spider mite (Tetranychus urticae) are sprayed with an active compound formulation of the desired concentration.
# After 6 days, the efficacy in % is determined 100% means that all the spider mites have been killed; 0% means that none of the spider mites have been killed. […]
# [6] = system: larvae of the mustard beetle (Phaedon cochleariae); experiment: Phaedon cochleariae spray test (PHAECO); type: in vivo; conditions: for efficacy / pest or weed control at 100 g/ha: 100 g/ha, spray, after 7 days; for pest or weed control at 100 g/ha: read-out: efficacy
# Method: Phaedon cochleariae—Spray Test (PHAECO)
# as §2
# Discs of Chinese cabbage leaves (Brassica pekinensis) are sprayed with an active compound formulation of the desired concentration and, after drying, populated with larvae of the mustard beetle (Phaedon cochleariae).
# After 7 days, the efficacy in % is determined. 100% means that all the beetle larvae have been killed; 0% means that no beetle larvae have been killed.
# After the stated period of time, the effect in % is determined 100% means that all the beetle larvae have been killed; 0% means that no beetle larvae have been killed.
# [7] = system: Ctenocephalides felis; experiment: Ctenocephalides felis; oral (CTECFE); type: in vivo; conditions: 100 ppm, oral in cattle blood, after 2 days
# Method: Ctenocephalides felis; Oral (CTECFE)
# To produce a suitable active compound formulation, 10 mg of active compound are mixed with 0.5 ml of dimethyl sulphoxide. A portion of the concentrate is diluted with citrated cattle blood, and the desired concentration is prepared.
# About 20 unfed adult fleas (Ctenocephalides felis) are placed into a chamber which is closed at the top and bottom with gauze. A metal cylinder whose bottom end is closed with parafilm is placed onto the chamber. The cylinder contains the blood/active compound preparation, which can be imbibed by the fleas through the parafilm membrane.
# After 2 days, the kill in % is determined 100% means that all fleas have been killed; 0% means that none of the fleas have been killed.
# [8] = system: Lucilia cuprina larvae; experiment: Lucilia cuprina test (LUCICU); type: in vivo; conditions: 100 ppm, after 2 days
# Method: as §3, with “Lucilia cuprina” for “Musca domestica”, “(LUCICU)” for “(MUSCDO)”, “horse meat” for “a sponge”, “about 20 Lucilia cuprina larvae.” for “adult Musca domestica.”, “the larvae” for “flies”, “none of the larvae” for “no flies”
# [9] = system: green peach aphid (Myzus persicae); experiment: Myzus persicae spray test (MYZUPE); type: in vivo; conditions: 100 g/ha, after 6 days
# Method: Myzus persicae-Spray Test (MYZUPE) [table] To produce a suitable active compound formulation, 1 part by weight of active compound is mixed with the stated amounts of solvent and emulsifier, and the concentrate is diluted with emulsifier-containing water to the desired concentration. Discs of Chinese cabbage leaves (Brassica pekinensis) infested by all stages of the green peach aphid (Myzus persicae) are sprayed with an active compound formulation of the desired concentration. After 6 days, the efficacy in % is determined 100% means that all the aphids have been killed; 0% means that none of the aphids have been killed.
# [10] = HPLC, acidic range pH 2.7, 43° C.
# [11] = HPLC, acidic range pH 2.7, 43° C., read-out: log p
Compound,efficacy [1] [%],"log p [2, 10]",efficacy (kill) [3] [%],efficacy (laying of fertile eggs) [4] [%],efficacy [5] [%],efficacy [6] [%],efficacy (kill) [7] [%],efficacy (kill) [8] [%],efficacy [9] [%],"chromatographic logP ([2]; pH 2.7, final compounds of the synthesis examples, read-out: log P (HPLC-MS))","pest or weed control at 100 g/ha ([6]; Phaedon cochleariae, 168 h) [%]","Emax at 4 g/ha ([1]; Spodoptera frugiperda, 168 h, SPODFR, 4 g of ai/ha, 7 d, read-out: % Efficacy dat) [%]","chromatographic logP [2, 11]","Emax at 4 g/ha ([5]; Tetranychus urticae, 144 h, TETRUR, 4 g of ai/ha, 6 d, read-out: % Efficacy dat) [%]","percent efficacy (larval mortality) at 0.8 g/ha ([6]; Phaedon cochleariae, 168 h, PHAECO, 0.8 g of ai/ha, 7 d, read-out: % Efficacy dat) [%]","Emax at 100 g/ha ([5]; Tetranychus urticae, 144 h, TETRUR, 100 g of ai/ha, 6 d, read-out: % Efficacy dat) [%]"
CCn1c(C(=O)NC(c2cccc(C(F)(F)F)c2)C(F)(F)F)cc2cc(C(=O)NC3(C#N)CC3)c(C)nc21 (stereo not drawn) [Compound 6],100,3.53,100,100,90,100,100,100,100,,,,,,,
CCn1c(C(=O)NC(c2cccc(C(F)(F)F)c2)C(F)(F)F)cc2cc(C(=O)NC3CC3)c(Cl)nc21 (stereo not drawn) [Compound 12],100,3.70,100,100,100,100,100,100,,,,,,,,
"CCn1c(C(=O)NC(c2cccc(C(F)(F)F)c2)C(F)(F)F)cc2cc(C(=O)NC3CC3)c(C)nc21 (stereo not drawn) [Compound 1, N^5-Cyclopropyl-1-ethyl-6-methyl-N^2-{2,2,2-trifluoro-1-[3-(trifluoromethyl)phenyl]ethyl}-1H-pyrrolo[2,3-b]pyridine-2,5-dicarboxamide]",100,,100,100,90,,100,100,,3.52,100,,,,,
Cn1c(C(=O)NC(c2cccc(C(F)(F)F)c2)C(F)(F)F)cc2cc(C(=O)NC3CC3)c(Cl)nc21 (stereo not drawn) [Compound 22],100,,100,100,100,,95,100,,,100,100,3.4,90,100,
CCn1c(C(=O)NC(c2cc(Cl)c(F)c(Cl)c2)C(F)(F)F)cc2cc(C(=O)NC3(C(N)=S)CC3)c(Cl)nc21 (stereo not drawn) [Compound 64],100,3.97,100,100,100,100,100,100,,,,,,,,
CCn1c(C(=O)NC(c2ccc(F)c(C(F)(F)F)c2)C(F)(F)F)cc2cc(C(=O)NC3(C#N)CC3)c(Cl)nc21 (stereo not drawn) [Compound 53],100,3.77,100,100,100,100,100,100,,,,,,,,
CCn1c(C(=O)NC(c2cccc(C(F)(F)F)c2)C(F)(F)F)cc2cc(C(=O)NCC#N)c(Cl)nc21 (stereo not drawn) [Compound 42],,,100,100,90,,100,100,,,100,,3.5,,,90
CCn1c(C(=O)NC(c2ccc(F)c(C(F)(F)F)c2)C(F)(F)F)cc2cc(C(=O)NC3CC3)c(Cl)nc21 (stereo not drawn) [Compound 29],100,,100,100,90,100,95,100,,,,,,,,
CCn1c(C(=O)NC(c2ccc(F)c(C(F)(F)F)c2)C(F)(F)F)cc2cc(C(=O)NC3(C#N)CC3)c(C)nc21 (stereo not drawn) [Compound 75],100,3.64,,,100,100,,,90,,,,,,,
CCn1c(C(=O)NC(c2cc(Cl)c(F)c(Cl)c2)C(F)(F)F)cc2cc(C(=O)NC3(C#N)CC3)c(Cl)nc21 (stereo not drawn) [Compound 27],100,4.11,100,100,100,100,100,100,,,,,,,,
CCn1c(C(=O)NC(c2ccc(F)c(Cl)c2)C(F)(F)F)cc2cc(C(=O)NC3(C(N)=S)CC3)c(Cl)nc21 (stereo not drawn) [Compound 65],100,3.51,80,100,90,100,100,100,,,,,,,,
CCn1c(C(=O)NC(c2ccc(F)c(Cl)c2)C(F)(F)F)cc2cc(C(=O)NC3CC3)c(Cl)nc21 (stereo not drawn) [Compound 16],,3.61,100,100,90,100,100,100,,,,,,,,
CCn1c(C(=O)NC(c2ccc(Cl)c(Cl)c2)C(F)(F)F)cc2cc(C(=O)NC3(C#N)CC3)c(Cl)nc21 (stereo not drawn) [Compound 32],100,3.94,100,100,100,100,100,100,,,,,,,,
CCn1c(C(=O)NC(c2cc(Cl)c(F)c(Cl)c2F)C(F)(F)F)cc2cc(C(=O)NC3(C(N)=S)CC3)c(Cl)nc21 (stereo not drawn) [Compound 63],100,4.20,100,100,90,100,100,100,,,,,,,,
CCn1c(C(=O)NC(c2cccc(C(F)(F)F)c2)C(F)(F)F)cc2cc(C(=O)NC3CCC3)c(Cl)nc21 (stereo not drawn) [Compound 15],,4.12,,,,100,,,90,,,,,,,
